Here are results for three compounds from patent publication US9512066B2, “Enhancers of protein degradation” (MAX-DELBRUCK-CENTRUM FUR MOLEKULARE MEDIZIN, priority 2009, dated 2016).

Series [1] is described as follows: Insolubility observed in the HepG2 viability assay. The settings on record: RPMI culture medium of the HepG2 viability assay, 37 °C, kinetic from dmso stock, RPMI medium (1% L-Glu, 10% FCS), read-out: concentration from/at which insoluble. Format: physicochemical. As to the method:
Cell viability was assayed on HepG2 cells. HepG2 cells were cultured in 96-well black culture plates with transparent bottom in RPMI medium (1% L-Glu, 10% FCS). 3 hours after plating, different drug concentrations (0.1 μM-100 μM) or DMSO as control were added. Chlorpromazine hydrochloride (Sigma, # C0982) and cycloheximide (Sigma, # C1988) were used as control substances. Each concentration was run in triplicates. After 48 hours of incubation, Alamar Blue reagent (BIOSOURCE, # DAL1100) was added and plates were incubated for 4 hours at […]. Absorbance was measured in the Tecan-plate reader (Tecan, infinite M200) at 570 nm and 600 nm. Product example 1 was insoluble from a concentration of 50 μM, product example 33 from 30 μM and product example 23 at 100 μM.

The next series concerns HTT-Q53 protein. Kind of series: GST-Htt-Q53 filter assay with conformational CAG antibody. Format: biochemical. The settings on record: samples at 0, 4, 5 and 6 h, 30° C. As to the method: GST-Htt-Q53-protein stock solution was ultra-centrifugated (40 min, 55.000 rpm [TLA-55 rotor], 4° C.); the supernatant was diluted with H2O to a final concentration of 2 μM. DMSO as a control, or drugs at various concentrations were added to the supernatant of GST-Htt-Q53 protein which was preincubated with PreScission Protease (GE Healthcare, #27-0843-01) in Tris-buffer (A:B=1:1; A:50 mM Tris, 150 mM NaCl, pH=6.8; B:1 mM EDTA, pH=8.0+10 mM DTT) and incubated at 30° C. (300 rpm). Samples were taken at 0, 4, 5 and 6 h. The samples were diluted with SDS-buffer (4% SDS, 100 mM DTT) and heated at 98° C. for 5 min. Samples were filtered through a cellulose-acetate membrane which was equilibrated with SDS solution (0.1%). The membrane was washed twice (SDS, 0.1%), blocked with skim milk (3% in PBS) for 30 min and developed with CAG antibody over night at 4° C. and with peroxidase labeled anti rabbit-antibody for 1 h at room temperature. The membrane was washed (2×TBS-0.05% Tween-20, 2×TBS) and luminescence was recorded with Chem Glow.

For a further series, the system named is tubulin. Kind of series: Tubulin polymerization assay (Cytoskeleton, Inc.). Type of series: biochemical. The settings on record: various concentrations. The protocol:
The tubulin polymerization assay (Cytoskeleton, Inc., Denver, Colo., USA, #BK011) was performed in accordance to the instruction manual.

Another series has as its target BSA (Bos taurus, UniProt P02769). Kind of series: Hydrazone hydrolysis in ammonium acetate solution with addition of BSA (RP-HPLC). Type of series: physicochemical. The settings on record: bovine, BSA (5 µM) in ammonium acetate solution, 20 μM hydrazone, 10 mM ammonium acetate, read-out: free soluble hydrazone after addition of BSA (converted). The protocol:
FIG. 4 illustrates the difference in the hydrazone hydrolysis with and without the addition of BSA of product example 1. A freshly prepared 10 mM methanol solution of product example 1 was diluted with an ammonium acetate (10 mM) BSA (5 μM) solution to a final concentration of 20 μM. The free soluble hydrazone was analyzed via RP-HPLC over a sample period of 24 h. The injection volume was 20 μL, the sample was stored at room temperature. The hydrazone peak was exploited for the determination of the hydrazone concentration. After the addition of BSA approximately […] of the available hydrazone was directly associated to the protein. Afterwards, the free hydrazone concentration was almost constant, between 96% and 91%, over the sample period.

In brackets after ≈: the same amount, converted by molar mass. Some results are limits rather than exact numbers.

BSA, sequence (P02769 25-607): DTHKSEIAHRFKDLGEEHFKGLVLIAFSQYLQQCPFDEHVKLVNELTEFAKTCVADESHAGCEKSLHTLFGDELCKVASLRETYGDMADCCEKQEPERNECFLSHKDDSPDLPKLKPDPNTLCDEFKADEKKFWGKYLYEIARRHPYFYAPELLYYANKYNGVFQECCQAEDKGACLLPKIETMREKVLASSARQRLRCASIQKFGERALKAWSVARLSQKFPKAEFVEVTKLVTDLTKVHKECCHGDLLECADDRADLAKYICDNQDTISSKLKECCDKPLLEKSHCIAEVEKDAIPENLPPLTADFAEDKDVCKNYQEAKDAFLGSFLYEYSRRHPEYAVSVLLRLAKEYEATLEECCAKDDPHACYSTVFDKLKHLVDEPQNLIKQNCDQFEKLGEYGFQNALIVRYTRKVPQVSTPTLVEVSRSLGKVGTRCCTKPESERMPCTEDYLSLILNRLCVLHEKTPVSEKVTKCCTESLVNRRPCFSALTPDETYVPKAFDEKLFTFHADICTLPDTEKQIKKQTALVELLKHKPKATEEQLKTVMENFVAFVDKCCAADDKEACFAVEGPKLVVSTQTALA

Regarding `O=[N+]([O-])c1ccc(NN=Cc2ccc(O)cc2O)cc1` [Example 33, 4-((2-(4-Nitrophenyl)hydrazono)methyl)benzene-1,3-diol], the solubility in series [1] was not below 30 µM.
Consider `Oc1ccc(C=NNc2c(F)c(F)c(F)c(F)c2F)c(O)c1` [Example 23, 4-((2-(Perfluorophenyl)hydrazono)methyl)benzene-1,3-diol], for which the solubility in series [1] came out at 100 µM (≈ 31.8 µg/mL). Further, the “change in conformation of the HTT-Q53 protein detected by the conformational CAG antibody” value in the series with HTT-Q53 protein is “time-dependent change in conformation”.
With `Oc1ccc(C=NNc2c(Cl)cc(C(F)(F)F)cc2Cl)c(O)c1` [Example 1, 4-((2-(2,6-Dichloro-4-(trifluoromethyl)phenyl)hydrazono)methyl)benzene-1,3-diol], the solubility in series [1] was not below 50 µM. Moreover, in the series on tubulin, the “effect on tubulin polymerization” value is “no effect”. In addition, the “change in conformation of the HTT-Q53 protein detected by the conformational CAG antibody” value with HTT-Q53 protein is on record as “time-dependent change in conformation”. At BSA, the fraction unbound at 20 µM was approximately 0.83.
